Patent US6683101B2, “Bicyclic cyclohexylamines and their use as NMDA receptor antagonists” (Warner-Lambert Company, priority 2000, dated 2004)
Where a name gives a salt, the structure may show the parent alone.

tested on: not given; assay: not given; details: not given

melting point	SMILES
232 to 237 °C	O=c1[nH]c2ccc(OCCN[C@H]3CC[C@@H](c4ccccc4)CC3)cc2[nH]1 (as salt: HCl) [Example 8a, 5-[2-(cis-4-Phenylcyclohexylamino)ethoxy]-1,3-dihydrobenzimidazol-2-one]
295 to 303 °C	O=c1[nH]c2ccc(CCCN[C@H]3CC[C@H](c4ccc(F)cc4)CC3)cc2o1 (as salt: HCl) [Example 2, 6-{3-[trans-4-(4-Fluorophenyl)cyclohexylamino]propyl}-3H-benzoxazol-2-one]
235 to 241 °C	CN(CCCc1ccc2[nH]c(=O)oc2c1)[C@H]1CC[C@H](c2ccc(F)cc2)CC1 (as salt: HCl) [Example 6, 6-(3-{[trans-4-(4-Fluorophenyl)cyclohexyl]methylamino}propyl)-3H-benzoxazol-2-one]
315 to 320 °C	O=c1[nH]c2ccc(OCCN[C@H]3CC[C@H](c4ccccc4)CC3)cc2[nH]1 (as salt: HCl) [Example 8b, 5-[2-(trans-4-Phenylcyclohexylamino)ethoxy]-1,3-dihydrobenzimidazol-2-one]
218 to 223 °C	O=c1[nH]c2ccc(CCCN[C@H]3CC[C@H](c4ccccc4)CC3)cc2o1 [Example 1, 6-[3-(trans-4-Phenylcyclohexylamino)propyl]-3H-benzoxazol-2-one]
99 to 109 °C	CCN(CCCc1ccc2[nH]c(=O)oc2c1)[C@H]1CC[C@H](c2ccc(F)cc2)CC1 (as salt: HCl) [Example 7, 6-(3-{[trans-4-(4-Fluorophenyl)cyclohexyl]ethylamino}propyl)-3H-benzoxazol-2-one]
229 to 234 °C	CN(CCN[C@H]1CC[C@H](c2ccccc2)CC1)c1ccc2[nH]c(=O)oc2c1 (as salt: HCl) [Example 3, 6-{Methyl[2-(trans-4-phenylcyclohexylamino)ethyl]amino}-3H-benzoxazol-2-one]

biological target: NR2A/NR2B (Rattus norvegicus, UniProt Q00960); assay: Electrophysiological assay at NMDA receptor subunits expressed in Xenopus oocytes (two-electrode voltage clamp); type: cell-based; details: cloned rat NMDA receptor subunits in Xenopus oocytes; currents activated by glutamate (100 μM) and glycine (1-100 μM); read-out: NR2A/NR2B Oocyte IC50
Sequence (Q00960 27-1482, other chains not shown): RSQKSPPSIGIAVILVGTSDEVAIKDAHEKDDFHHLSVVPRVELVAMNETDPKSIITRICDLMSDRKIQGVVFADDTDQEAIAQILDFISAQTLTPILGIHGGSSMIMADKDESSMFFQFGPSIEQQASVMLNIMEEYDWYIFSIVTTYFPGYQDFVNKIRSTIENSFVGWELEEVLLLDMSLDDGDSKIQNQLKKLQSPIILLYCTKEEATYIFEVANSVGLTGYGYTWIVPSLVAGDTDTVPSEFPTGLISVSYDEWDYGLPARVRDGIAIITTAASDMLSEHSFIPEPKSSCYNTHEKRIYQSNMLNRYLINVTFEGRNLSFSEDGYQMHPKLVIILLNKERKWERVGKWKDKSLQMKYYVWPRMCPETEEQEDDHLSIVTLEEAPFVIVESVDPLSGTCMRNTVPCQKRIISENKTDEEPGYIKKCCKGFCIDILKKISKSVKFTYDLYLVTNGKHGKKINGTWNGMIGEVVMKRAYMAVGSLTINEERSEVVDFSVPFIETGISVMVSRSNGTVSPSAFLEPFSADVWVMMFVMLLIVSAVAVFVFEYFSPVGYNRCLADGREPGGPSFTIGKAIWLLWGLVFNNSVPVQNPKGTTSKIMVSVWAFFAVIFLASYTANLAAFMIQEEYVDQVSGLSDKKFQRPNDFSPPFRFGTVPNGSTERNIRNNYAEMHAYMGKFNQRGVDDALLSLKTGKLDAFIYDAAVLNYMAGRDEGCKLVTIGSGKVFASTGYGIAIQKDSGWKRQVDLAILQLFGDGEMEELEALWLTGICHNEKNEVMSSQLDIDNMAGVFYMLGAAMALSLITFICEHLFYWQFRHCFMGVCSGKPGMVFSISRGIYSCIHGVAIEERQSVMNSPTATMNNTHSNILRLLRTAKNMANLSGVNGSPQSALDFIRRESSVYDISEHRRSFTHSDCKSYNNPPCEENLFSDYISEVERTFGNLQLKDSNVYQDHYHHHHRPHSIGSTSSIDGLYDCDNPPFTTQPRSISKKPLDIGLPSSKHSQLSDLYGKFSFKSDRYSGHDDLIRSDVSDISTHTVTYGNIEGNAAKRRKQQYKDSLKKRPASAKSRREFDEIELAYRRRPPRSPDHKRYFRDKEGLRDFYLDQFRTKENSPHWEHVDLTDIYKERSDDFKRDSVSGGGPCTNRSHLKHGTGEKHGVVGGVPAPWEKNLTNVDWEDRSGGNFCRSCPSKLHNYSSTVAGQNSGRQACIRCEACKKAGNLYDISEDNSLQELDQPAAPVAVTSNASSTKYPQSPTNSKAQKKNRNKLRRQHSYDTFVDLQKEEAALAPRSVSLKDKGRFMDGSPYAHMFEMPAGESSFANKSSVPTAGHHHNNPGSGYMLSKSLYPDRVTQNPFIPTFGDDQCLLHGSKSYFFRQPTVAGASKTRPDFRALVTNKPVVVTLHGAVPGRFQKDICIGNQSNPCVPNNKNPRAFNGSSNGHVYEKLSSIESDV
From the text: Electrophysiological Assays at NMDA Receptor Subunits
Preparation of RNA. cDNA clones encoding the NR1A, NR2A, NR2B, and NR2C rat NMDA receptor subtypes were used (see, Moriyoshi et al. Nature (Lond), 1991;354:31-37; Kutsuwada et al. Nature (Lond), 1992;358:36-41; Monyer et al. Science (Washington, D.C.), 1992;256:1217-1221; Ikeda et al. FEBS Lett., 1992;313:34-38; Ishii et al. J. Biol. Chem., 1993;268:2836-2843 for details of these clones or their mouse homologs). The clones were transformed into appropriate host bacteria, and plasmid preparations were made with conventional DNA purification techniques. A sample of each clone was linearized by restriction enzyme digestion of […] and was synthesized with T3 RNA polymerase. The cRNA was diluted to 400 ng/μL and stored in 1 μL aliquots at −80° C. until injection.
The Xenopus oocyte expression system. Mature female Xenopus laevis were anaesthetized (20-40 minutes) using 0.15% 3-aminobenzoic acid ethyl ester (MS-222), and 2-4 ovarian lobes were surgically removed. Oocytes at developmental stages IV-VI (Dumont J. N. J. Morphol., 1972;136:153-180) were dissected from the ovary still surrounded by enveloping ovarian tissues. Follicle-enclosed oocytes were micro-injected with 1:1 mixtures of NR1A:NR2A, 2B, or 2C; injecting 1 to 10 ng of RNA encoding each receptor subunit. NR1A encoding RNA was injected alone at ˜20 ng. Oocytes were stored in Barth's medium containing (in mM): NaCl, 88; KCl, 1; CaCl2, 0.41; Ca (NO3)2, 0.33; MgSO4, 0.82; NaHCO3, 2.4; HEPES 5, pH 7.4, with 0.11 mg/ml gentamicin sulphate. While oocytes were still surrounded by enveloping ovarian tissues, the Barth's medium was supplemented with 0.1% bovine serum. […]
Electrical recordings were made using a conventional two-electrode voltage clamp (Dagan TEV-200) over periods ranging between 3 to 21 days following injection. […] Using oocytes expressing different subunit combinations of NMDA receptor, NMDA currents were activated by co-application of glutamate (100 μM and glycine (1-100 μM). Inhibitory potency of the novel antagonists was assessed on responses elicited by fixed concentrations of glutamate and glycine, by measuring reductions in current induced by progressively increasing concentrations of antagonist. […]
In which Icontrol is the current evoked by agonists alone, pIC50=−log IC50, IC50 is the concentration of antagonist that produced half maximal inhibition, and n is the slope factor (De Lean et al. Am. J. Physiol., 1978;235:E97-102). For incomplete curves, analysis by fitting was unreliable, and IC50 values were calculated by simple regression over linear portions of the curves (Origin: Microcal Software).

IC50	SMILES
120 nM	O=c1[nH]c2ccc(OCCN[C@H]3CC[C@H](c4ccccc4)CC3)cc2[nH]1 [Example 8b, 5-[2-(trans-4-Phenylcyclohexylamino)ethoxy]-1,3-dihydrobenzimidazol-2-one]
1000 nM	CN(CCN[C@H]1CC[C@H](c2ccccc2)CC1)c1ccc2[nH]c(=O)oc2c1 [Example 3, 6-{Methyl[2-(trans-4-phenylcyclohexylamino)ethyl]amino}-3H-benzoxazol-2-one]
120 nM	O=c1[nH]c2ccc(CCCN[C@H]3CC[C@H](c4ccc(F)cc4)CC3)cc2o1 [Example 2, 6-{3-[trans-4-(4-Fluorophenyl)cyclohexylamino]propyl}-3H-benzoxazol-2-one]
280 nM	O=c1[nH]c2ccc(OCCN[C@H]3CC[C@@H](c4ccccc4)CC3)cc2[nH]1 [Example 8a, 5-[2-(cis-4-Phenylcyclohexylamino)ethoxy]-1,3-dihydrobenzimidazol-2-one]

biological target: T1, NMDA receptor ([3H]ifenprodil binding site) (Rattus norvegicus, UniProt P35439+Q00960); assay: [3H]Ifenprodil binding assay, rat forebrain membranes; details: adult rat forebrain membranes, 4 nM [3H]-ifenprodil, 2 hours at room temperature, pH 7.4
T1 construct: tissue Zivic-Miller Laboratories, Inc; host or cells: adult rat forebrain, washed buffy coat membrane fraction
T1 sequence (Q00960 27-1482, other chains not shown): as above
Method: [^3H]Ifenprodil Binding Assay Protocol:
All buffers and reagents used in assay incubations or to dissolve drugs were prepared using water purified through a Milli-Q reverse osmosis system (Millipore Corp, Bedford, Mass.) and treated with UV emissions. Prior to use in the assays, buffers were further filtered through a sterile Corning filtration unit (Corning Glass Works, Corning, N.Y.) containing a 0.2 micron filter. Buffer used to rinse the membranes on the assay filters was prepared with purified water, but was not refiltered and was stored no longer than 5 days. Stock solutions of the drugs (usually 10 mM) were dissolved in 20 mM HEPES-KOH buffer pH 7.4 (assay buffer) with the addition of 1 to 5 μL of glacial AcOH, if needed, to keep them in solution. For eliprodil, the stock solution was buffer with the addition of 10% DMSO. All subsequent dilutions from stock were made in buffer.
An extensively washed buffy coat membrane fraction was prepared from frozen adult rat forebrains (Zivic-Miller Laboratories, Inc, Zelienople, Pa.) as described previously (Coughenour L. L., Cordon J. J. J. Pharmacol Exp. Ther., 1997;280:584-592) and stored at −80° C. On the day of the assay, pellets were resuspended in 35 mL of assay buffer at pH 7.4 using a Polytron setting 6. After incubation at 37° C. for 30 minutes in a shaking water bath, the homogenate was centrifuged 40,000×g for 10 minutes at 4° C. The pellets were resuspended in fresh buffer and centrifuged 3 more times before final suspension for use in the assay.
[^3H]Ifenprodil Binding. Triplicate incubations were carried out in a volume of 0.5 mL in 1.3 mL polypropylene tubes (Marsh Biomedical Products Inc, Rochester, N.Y.) for 2 hours at room temperature. Incubations contained test agents, membranes (100-200 μg protein), and 4 nM [^3H]-ifenprodil in 20 mM HEPES-KOH buffer, pH 7.4 (assay buffer). Assays were started by addition of the membranes. Bound radioligand was separated by filtration under reduced pressure Using a Tomtec Mach II, 96-well cell harvester (Tomtec Inc, Orange, Colo.). Filtration was through Whatman GF/B glass fiber filters (Whatman Ltd, Maidstone, England), which had been soaked for at least 15 minutes in 0.3% polyethylenimine and allowed to air dry. The filters were rinsed with 3 mL of ice cold assay buffer within 6 seconds. Air was allowed to pass through the filters for an additional 10 seconds to remove residual moisture. The filter mat was supported on a cold (−20° C.) teflon support, and filters from individual wells were separated and placed in Mini Poly-Q vials (Beckman Instrrnents Inc, Fullerton, Calif.) and filled with 4 mL of scintillation cocktail (Beckman Ready Protein^+). Radioactivity retained on the filter was determined by liquid scintillation spectrophotometry. Nonspecific binding was defined as the binding in the presence of 1 mM ifenprodil. Specific binding was 90%.
Data analysis. Binding curves were statistically analyzed for a best one or two site competition fit using GraphPad Prism software (GraphPad Software Inc, San Diego, Calif.). The normalized data was fit by nonweighted nonlinear regression to either [formula]
Control data was entered as 100%, and no parameters were constrained. Inhibition curves were compared by ANOVA with post test comparisons of the logIC50 using Dunnett's multiple comparisons post test or Student's nonpaired, two-tailed t-test (GraphPad InStat software).

IC50	SMILES
730 nM	CN(CCCc1ccc2[nH]c(=O)oc2c1)[C@H]1CC[C@H](c2ccc(F)cc2)CC1 [Example 6, 6-(3-{[trans-4-(4-Fluorophenyl)cyclohexyl]methylamino}propyl)-3H-benzoxazol-2-one]
> 1000 nM	CCN(CCCc1ccc2[nH]c(=O)oc2c1)[C@H]1CC[C@H](c2ccc(F)cc2)CC1 [Example 7, 6-(3-{[trans-4-(4-Fluorophenyl)cyclohexyl]ethylamino}propyl)-3H-benzoxazol-2-one]
53 nM	O=c1[nH]c2ccc(CCCN[C@H]3CC[C@H](c4ccccc4)CC3)cc2o1 [Example 1, 6-[3-(trans-4-Phenylcyclohexylamino)propyl]-3H-benzoxazol-2-one]
1760 nM	CN(CC(O)c1ccc2[nH]c(=O)[nH]c2c1)[C@H]1CC[C@H](c2ccccc2)CC1 (stereo partly drawn) [Example 5, 5-{1-Hydroxy-2-[methyl(trans-4-phenylcyclohexyl)amino]ethyl}-1,3-dihydrobenzimidazol-2-one]
91 nM	O=c1[nH]c2ccc(SCCN[C@H]3CC[C@H](c4ccccc4)CC3)cc2o1 [Example 4, 6-[2-(trans-4-Phenylcyclohexylamino)ethylsulfanyl]-3H-benzoxazol-2-one]
